Laboratory results reported in US12486250B2, “Muscarinic receptor 4 antagonists and methods of use” (Neurocrine Biosciences, Inc., priority 2019, dated 2025).

Experiments:
[1] = target: T1, MDR1 (Multidrug resistance protein 1) (Homo sapiens, UniProt P08183); assay: MDCK-MDR1 assay (apparent permeability and efflux ratio); format: in vitro ADME; details: for Papp A→B at 2 h, 5 µM / Papp B→A at 2 h, 5 μM: MDCK-MDR1, pH 7.4, 2 hours at 37° C.; for Papp A→B at 2 h, 5 µM: apical to basolateral; for Papp B→A at 2 h, 5 μM: basolateral to apical; for efflux ratio at 2 h, 5 µM: MDCK-MDR1, pH 7.4, Papp B>A/Papp A>B
T1 construct: host or cells: MDCK cells
Procedure: Apparent permeability and efflux ratios were generated by Absorption Systems LLP, Exton, PA MDCK cells transfected with human MDR1 (Multidrug resistance protein 1) were grown as monolayers on microporous membranes in 12-well assay plates. Each compound was evaluated at a single concentration equal to 5 μM. The assay buffer consisted of Hanks' balanced salt solution pH 7.4 containing 10 mM HEPES and 15 mM glucose. Test article diluted in assay buffer was dosed to the apical chambers of cell monolayer plates to determine apical to basolateral (A to B) permeability. Basolateral to apical (B to A) permeability was determined by addition of dosing solution to the basolateral chambers. […] Cell monolayers dosed with test article were incubated for 2 hours at 37° C., 5% CO2 in a humidified incubator. Samples were collected from both donor and receiver chambers at 2 hours then prepared for LC-MS/MS analysis using electrospray ionization. Duplicate measurements of A to B and B to A permeability were collected for each compound. Efflux ratio was calculated using the following formula: Papp B>A/Papp A>B. Controls were incorporated to ensure cell monolayer integrity (lucifer yellow) and activity of MDR1 protein (digoxin).

[2] = target: T2, human M5 receptor (Homo sapiens, UniProt P08912); assay: Radioligand ([3H]N-methylscopolamine) binding assay, CHO cell membranes; details: 1.5 nM tritiated N-methylscopolamine, 90 minutes at 37° C.; read-out: Binding affinity (Ki) M5
T2 construct: expressed in transfected cells; host or cells: CHO cells
T2 sequence (P08912 1-532): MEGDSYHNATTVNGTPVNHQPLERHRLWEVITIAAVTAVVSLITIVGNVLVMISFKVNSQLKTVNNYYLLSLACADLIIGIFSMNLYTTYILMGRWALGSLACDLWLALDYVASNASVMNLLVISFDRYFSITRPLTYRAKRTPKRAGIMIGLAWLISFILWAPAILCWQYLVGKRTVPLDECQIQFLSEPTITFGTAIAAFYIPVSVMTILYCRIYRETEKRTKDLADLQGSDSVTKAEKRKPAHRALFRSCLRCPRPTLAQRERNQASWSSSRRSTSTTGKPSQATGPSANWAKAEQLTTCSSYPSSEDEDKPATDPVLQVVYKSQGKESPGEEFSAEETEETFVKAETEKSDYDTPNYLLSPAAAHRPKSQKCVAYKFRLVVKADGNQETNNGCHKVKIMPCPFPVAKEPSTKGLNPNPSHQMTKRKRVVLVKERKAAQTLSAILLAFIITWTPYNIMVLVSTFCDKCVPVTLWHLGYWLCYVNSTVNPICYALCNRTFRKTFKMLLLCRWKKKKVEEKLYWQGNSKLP
Procedure: (§1) Binding affinity (Ki) of compounds was measured by inhibition of radioligand binding to membranes from CHO cells expressing human M1, M2, M3, M4 and M5 receptors. Membranes were prepared by nitrogen cavitation and differential centrifugation as previously described (Hoare et al., Mol. Pharmacol. 2003 March; 63(3): 751-65). The radioligand employed was tritiated N-methylscopolamine, used at a concentration of 1.5 nM. A dose-response of twelve concentrations of compound was used, ranging from […]. The assay buffer was 50 mM HEPES, 100 mM NaCl, 5 mM MgCl2, 1 mM ethylenediaminetetraacetic acid, pH-adjusted to pH 7.4. Membranes, radioligand and compound were incubated together for 90 minutes at 37° C., in a total volume of 150 μL in a 96-well plate. Receptor-bound radioligand was then collected by harvesting the assay over glass fiber filters pretreated with polyethylenimine to trap the cell membranes, using rapid vacuum filtration. Harvesting and radioactivity counting was conducted as previously described (see, e.g., Hoare et al., Mol. Pharmacol. 2003 63(3):751-65); Erratum at Mol. Pharmacol. 2005 July; 68(1): 260).

[3] = target: T3, human M3 receptor (Homo sapiens, UniProt P20309); assay: as above; details: 1.5 nM tritiated N-methylscopolamine, 90 minutes at 37° C.; read-out: Binding affinity (Ki) M3
T3 construct: expressed in transfected cells; host or cells: CHO cells
Procedure: as §1

[4] = target: T4, human M2 receptor (Homo sapiens, UniProt P08172); assay: as above; details: 1.5 nM tritiated N-methylscopolamine, 90 minutes at 37° C.; read-out: Binding affinity (Ki) M2
T4 construct: expressed in transfected cells; host or cells: CHO cells
T4 sequence (P08172 1-466): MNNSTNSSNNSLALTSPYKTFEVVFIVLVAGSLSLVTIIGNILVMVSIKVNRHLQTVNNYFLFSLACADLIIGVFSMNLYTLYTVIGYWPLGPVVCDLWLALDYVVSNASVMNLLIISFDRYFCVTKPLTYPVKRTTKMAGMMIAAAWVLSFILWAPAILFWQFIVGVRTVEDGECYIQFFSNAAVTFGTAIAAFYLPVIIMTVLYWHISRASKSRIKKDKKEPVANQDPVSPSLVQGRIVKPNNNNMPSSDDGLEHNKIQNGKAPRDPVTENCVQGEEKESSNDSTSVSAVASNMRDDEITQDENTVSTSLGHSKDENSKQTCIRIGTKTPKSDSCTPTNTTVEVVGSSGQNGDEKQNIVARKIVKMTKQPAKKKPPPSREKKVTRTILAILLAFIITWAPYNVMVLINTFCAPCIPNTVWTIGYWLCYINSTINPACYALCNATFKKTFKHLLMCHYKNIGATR
Procedure: as §1

[5] = target: T5, human M1 receptor (Homo sapiens, UniProt P11229); assay: as above; details: 1.5 nM tritiated N-methylscopolamine, 90 minutes at 37° C.; read-out: Binding affinity (Ki) M1
T5 construct: expressed in transfected cells; host or cells: CHO cells
T5 sequence (P11229 1-460): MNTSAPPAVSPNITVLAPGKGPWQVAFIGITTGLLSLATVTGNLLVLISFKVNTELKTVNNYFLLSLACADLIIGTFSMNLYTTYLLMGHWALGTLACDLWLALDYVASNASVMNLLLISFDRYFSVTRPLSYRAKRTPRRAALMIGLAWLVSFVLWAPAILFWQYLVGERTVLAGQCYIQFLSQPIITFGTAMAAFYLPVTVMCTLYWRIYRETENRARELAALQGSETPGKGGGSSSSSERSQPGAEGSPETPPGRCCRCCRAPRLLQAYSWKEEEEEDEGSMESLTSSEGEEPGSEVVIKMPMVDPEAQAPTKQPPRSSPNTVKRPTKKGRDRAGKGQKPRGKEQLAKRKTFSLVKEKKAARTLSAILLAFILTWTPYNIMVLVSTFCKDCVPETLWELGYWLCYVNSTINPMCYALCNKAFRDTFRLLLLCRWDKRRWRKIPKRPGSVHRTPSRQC
Procedure: as §1

T3 sequence (P20309 whole entry): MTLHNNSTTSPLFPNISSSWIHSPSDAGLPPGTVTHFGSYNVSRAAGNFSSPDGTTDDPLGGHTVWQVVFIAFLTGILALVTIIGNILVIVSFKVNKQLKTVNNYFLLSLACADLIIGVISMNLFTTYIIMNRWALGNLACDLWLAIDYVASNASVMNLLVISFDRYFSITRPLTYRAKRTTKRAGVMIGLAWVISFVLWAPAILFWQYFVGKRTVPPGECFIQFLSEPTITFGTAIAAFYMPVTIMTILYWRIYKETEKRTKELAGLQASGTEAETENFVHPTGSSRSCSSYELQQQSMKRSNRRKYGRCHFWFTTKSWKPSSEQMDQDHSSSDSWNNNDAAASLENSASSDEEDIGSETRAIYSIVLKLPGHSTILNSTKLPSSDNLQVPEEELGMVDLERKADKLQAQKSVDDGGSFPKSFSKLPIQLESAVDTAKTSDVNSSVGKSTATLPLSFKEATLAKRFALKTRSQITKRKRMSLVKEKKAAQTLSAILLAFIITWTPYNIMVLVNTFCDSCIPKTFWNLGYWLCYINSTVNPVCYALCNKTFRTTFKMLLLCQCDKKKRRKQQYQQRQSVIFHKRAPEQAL

Compound	Papp A→B at 2 h, 5 µM [1] [×10⁻⁶ cm/s]	Papp B→A at 2 h, 5 μM [1] [×10⁻⁶ cm/s]	efflux ratio at 2 h, 5 µM [1]	Ki [2] [nM]	Ki [3] [nM]	Ki [4] [nM]	Ki [5] [nM]
C[C@@H]1CN(c2cnc(C(F)(F)F)cn2)C[C@H](C)N1C(=O)OCCC1CCN(Cc2ccccc2)CC1 [Compound 1, 2-(1-benzylpiperidin-4-yl)ethyl (2R,6S)-2,6-dimethyl-4-[5-(trifluoromethyl)pyrazin-2-yl]piperazine-1-carboxylate]	15	21.3	1.42	≥ 1000	≥ 1000	1860	≥ 1000
C[C@@H]1CN(c2cnc(C(F)(F)F)cn2)C[C@@H](C)N1C(=O)OCCC1CCN(Cc2ccccc2)CC1 [Compound 2, 2-(1-benzylpiperidin-4-yl)ethyl (2R,6R)-2,6-dimethyl-4-[5-(trifluoromethyl)pyrazin-2-yl]piperazine-1-carboxylate]	17.5	24.1	1.38	≥ 1000	≥ 1000	271	≥ 1000
C[C@@H]1CN(c2ncc(C#N)cn2)C[C@H](C)N1C(=O)NCCC1CCN(Cc2ccccc2)CC1 [Compound 3A]	0.53	51.2	96.6			520	
C[C@@H]1CN(c2cnc(C(F)(F)F)cn2)C[C@@H](C)N1C(=O)NCCC1CCN(Cc2ccccc2)CC1 [Compound 4A]	0.55	68.6	125			665	
